Data as given in ChEMBL document CHEMBL1157415, “Isolation, structure elucidation, and synthesis of cytotoxic tryptanthrin analogues from Phaius mishmensis” (J Nat Prod, 2008).

Assays:
Format in all cases: functional, cell-based
MCF7 = assay: Cytotoxicity against human MCF7 cells
NCI-H460 = assay: Cytotoxicity against human NCI-H460 cells
SF-268 = assay: Cytotoxicity against human SF268 cells

Row | SMILES | IC50 (MCF7; Homo sapiens, MCF7) [µM] | IC50 (NCI-H460; Homo sapiens, NCI-H460) [µM] | IC50 (SF-268; Homo sapiens, SF-268) [µM] | IC50 (MCF7; mcf7) [µM] | IC50 (NCI-H460; nci-h460) [µM] | IC50 (SF-268; sf-268) [µM]
1 | O=C(CC1(O)c2ccccc2-n2c1nc1ccccc1c2=O)c1ccccc1 (centres undefined) | > 50 | > 50 | > 50 | – | – | –
2 | CCC(=O)C(C)C1(O)c2ccccc2-n2c1nc1ccccc1c2=O (centres undefined) | 15.8 | 13.9 | 24.8 | – | – | –
3 | CCCCCCCCC(=O)CC1(O)c2ccccc2-n2c1nc1ccccc1c2=O (centres undefined) | 40.5 | 42.8 | > 50 | – | – | –
4 | O=C1CCCC1C1(O)c2ccccc2-n2c1nc1ccccc1c2=O (stereo in doubt; 11) | – | – | – | 19.7 | 19.1 | 34.8
5 | O=C1CCCC1C1(O)c2ccccc2-n2c1nc1ccccc1c2=O (stereo in doubt; 12) | 20.7 | 20.6 | 33.9 | – | – | –
6 | O=C1/C(=c2\c3ccccc3n3c(=O)c4ccccc4nc23)Nc2ccccc21 [CANDIDINE] | > 50 | > 50 | > 50 | – | – | –
7 | COC(=O)C1(O)c2ccccc2N=C2C(=O)c3ccccc3N21 (centres undefined) [METHYLISATOID] | > 50 | > 50 | > 50 | – | – | –
8 | O=C1c2c(O)cccc2-n2c1nc1ccccc1c2=O [PHAITANTHRIN C] | > 50 | > 50 | > 50 | – | – | –
9 | O=C1OC[C@@]23Nc4ccccc4C(=O)N2c2ccccc2[C@@H]13 [PHAITANTHRIN D] | > 50 | > 50 | > 50 | – | – | –
10 | COC(=O)c1c2ccccc2n2c(=O)c3ccccc3[nH]c12 [PHAITANTHRIN E] | > 50 | > 50 | > 50 | – | – | –
11 | CC(=O)CC1(O)c2ccccc2-n2c1nc1ccccc1c2=O (centres undefined) [PHAITANTHRINS A] | 28.2 | 31.4 | 45.4 | – | – | –
12 | COC(=O)CC1(O)c2ccccc2-n2c1nc1ccccc1c2=O (centres undefined) [PHAITANTHRINS B] | > 50 | > 50 | > 50 | – | – | –
13 | O=C1c2ccccc2-n2c1nc1ccccc1c2=O [TRYPTANTHRIN] | 11.1 | 9 | 24.4 | – | – | –
